The values that follow come from the supplement of paper PMC10307832.

What all share (test): relative viability (nuclei count vs DMSO), 5 days (fraction); higher = more cells survive
Compound in the test “Motesanib + Crizotinib”: CC1(C)CNc2cc(NC(=O)c3cccnc3NCc3ccncc3)ccc21 [Motesanib] + C[C@@H](Oc1cc(-c2cnn(C3CCNCC3)c2)cnc1N)c1c(Cl)ccc(F)c1Cl [Crizotinib] (partner 1 µM)
The gist of the method:
(§1)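 Lung cancer cell lines in 1536-well plates got either a single drug or a fixed anchor-drug dose together with five library-drug doses (not always all listed) in √10 steps, by pin tool, on the day after seeding. Nuclei were counted after 5 days, and relative viability is the treated-to-vehicle ratio of nuclei counts. Values are medians of duplicate plates.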

Compound in the test “Motesanib + Pemetrexed”: CC1(C)CNc2cc(NC(=O)c3cccnc3NCc3ccncc3)ccc21 [Motesanib] + Nc1nc2[nH]cc(CCc3ccc(C(=O)N[C@@H](CCC(=O)O)C(=O)O)cc3)c2c(=O)[nH]1 [Pemetrexed] (partner 0.2 µM)
The gist of the method:
as §1

Compound in test [1]: C[C@@]1(C(=O)Nc2ccc(F)nc2)CCCN1c1nc(Nc2cc(C3CC3)n[nH]2)c2cccn2n1 + Cc1nc(NC(=O)N2CCC[C@H]2C(N)=O)sc1-c1ccnc(C(C)(C)C(F)(F)F)c1 [Alpelisib] (partner 2 µM)
The method in brief:
as §1

Compound in test [2]: C[C@@]1(C(=O)Nc2ccc(F)nc2)CCCN1c1nc(Nc2cc(C3CC3)n[nH]2)c2cccn2n1 + O=C(CCCCCCC(=O)Nc1ccccc1)NO [Vorinostat] (partner 1 µM)
The gist of the method:
as §1

Regarding UMC-11, the relative viability in the test with Motesanib + Crizotinib (first compound 0.01 µM) was 0.526; with Motesanib + Crizotinib (first compound 0.03162 µM), 0.657; in the test with Motesanib + Crizotinib (first compound 0.1 µM), 0.631; with Motesanib + Crizotinib (first compound 0.3162 µM), 0.595; with Motesanib + Crizotinib (first compound 1 µM), 0.742; with Motesanib + Pemetrexed (first compound 0.01 µM) it was 0.834. Besides, the relative viability was determined as 0.696 in the test with Motesanib + Pemetrexed (first compound 0.03162 µM); 0.575 in the test with Motesanib + Pemetrexed (first compound 0.1 µM); 0.608 with Motesanib + Pemetrexed (first compound 0.3162 µM); 0.556 in the test with Motesanib + Pemetrexed (first compound 1 µM); 0.955 in test [1] (first compound 0.04 µM); 1.1 in test [1] (first compound 0.1265 µM). The relative viability in test [1] (first compound 0.4 µM) is 1.01; in test [1] (first compound 1.265 µM) it was 1.1; in test [2] (first compound 0.04 µM) it was 0.398; in test [2] (first compound 0.1265 µM) it was 0.432; in test [2] (first compound 0.4 µM), 0.359; in test [2] (first compound 1.265 µM), 0.258.
